Assay results reported in DBAASP.
Converted amounts (≈) assume the structure as drawn.

Legend:
Assay in all cases: ≥ marks a high value that may be exact or a test limit, other limits are often not marked, values filed in µg/mL are converted to µM
[1] = tested on: Escherichia coli ATCC 25726
[2] = tested on: Staphylococcus aureus ATCC 25923
[3] = tested on: Candida albicans ATCC 2002
[4] = tested on: Pseudomonas aeruginosa CMCCB 10104
[5] = tested on: Escherichia coli ATCC 25922
[6] = tested on: Staphylococcus aureus KCTC 1621
[7] = tested on: Bacillus subtilis KCTC 3068
[8] = tested on: Escherichia coli KCTC 1682
[9] = tested on: Staphylococcus epidermidis KCTC 1917
[10] = tested on: Salmonella typhimurium KCTC 1926
[11] = tested on: Pseudomonas aeruginosa KCTC 1637
[12] = tested on: Bacillus subtilis ATCC 6633
[13] = tested on: Pseudomonas aeruginosa ATCC 27853
[14] = tested on: Enterococcus faecalis ATCC 29212
[15] = tested on: Escherichia coli UB1005
[16] = tested on: Staphylococcus epidermidis C621
[17] = tested on: Escherichia coli ATCC 11775

Row | Compound | MIC [2] | MIC [3] | MIC [4] | MIC [5] | MIC [6] | MIC [7] | MIC [8] | MIC [9] | MIC [10] | MIC [11] | further results
1 | CC[C@H](C)[C@H](NC(=O)[C@@H]1CCCN1C(=O)[C@H](CC(C)C)NC(=O)[C@@H](N)Cc1ccccc1)C(=O)N[C@@H](CC(C)C)C(=O)NCC(=O)N[C@@H](CC(N)=O)C(=O)N[C@@H](CC(C)C)C(=O)N[C@@H](CC(C)C)C(=O)N[C@@H](CO)C(=O)NCC(=O)N[C@@H](CC(C)C)C(=O)N[C@@H](CC(C)C)C(N)=O [FLPILGNLLSGLL] | 50 µM (≈ 68.4 µg/mL) |  |  |  |  |  |  |  |  |  | MIC [1]: ≥ 100 µM
2 | CC[C@H](C)[C@H](NC(=O)[C@H](CC(C)C)NC(=O)[C@@H](NC(=O)[C@H](Cc1ccccc1)NC(=O)[C@H](CC(C)C)NC(=O)CN)[C@@H](C)O)C(=O)N[C@@H](CCCCN)C(=O)NCC(=O)N[C@@H](C)C(=O)N[C@@H](Cc1ccc(O)cc1)C(=O)N[C@@H](CCCCN)C(=O)N[C@@H](CC(N)=O)C(=O)N[C@@H](CC(=O)O)C(=O)N[C@@H](C)C(=O)N1CCC[C@H]1C(=O)N[C@H](C(=O)N[C@H](C(=O)N[C@@H](C)C(=O)N[C@@H](CS)C(=O)N[C@@H](CC(N)=O)C(=O)O)C(C)C)[C@@H](C)O [GLFTLIKGAYKNDAPTVACN] | 5.82 µM (≈ 12.2 µg/mL) | 11.6 µM (≈ 24.3 µg/mL) | 23.2 µM (≈ 48.6 µg/mL) | 11.6 µM (≈ 24.3 µg/mL) |  |  |  |  |  |  | 
3 | CC[C@H](C)[C@H](NC(=O)[C@H](CC(C)C)NC(=O)[C@H](CCC(N)=O)NC(=O)[C@@H](NC(=O)[C@H](C)NC(=O)CNC(=O)[C@H](CCCCN)NC(=O)[C@@H](NC(=O)[C@H](CC(C)C)NC(=O)[C@@H](NC(=O)[C@H](Cc1ccccc1)NC(=O)[C@@H](NC(=O)CN)C(C)C)[C@@H](C)O)[C@@H](C)CC)[C@@H](C)O)C(=O)NCC(=O)N[C@@H](CCCCN)C(=O)N[C@H](C(=O)N[C@@H](CC(C)C)C(=O)NCC(=O)N[C@@H](CCCCN)C(=O)N[C@@H](CCC(=O)O)C(=O)N[C@@H](CC(C)C)C(=O)NCC(=O)N[C@@H](CCCCN)C(=O)N[C@H](C(=O)NCC(=O)N[C@@H](CC(C)C)C(=O)N[C@@H](CCC(=O)O)C(=O)N[C@@H](CC(C)C)C(=O)N[C@@H](CCSC)C(=O)N[C@@H](C)C(=O)N[C@H]1CSSC[C@@H](C(=O)O)NC(=O)[C@H](CCC(N)=O)NC(=O)[C@H](CCC(=O)O)NC(=O)[C@H]([C@@H](C)O)NC(=O)[C@H]([C@@H](C)CC)NC(=O)[C@H](CCCCN)NC1=O)[C@@H](C)O)[C@@H](C)O [GVFTLIKGATQLIGKTLGKELGKTGLELMACKITEQC] | 0.924 µM (≈ 3.6 µg/mL) | 0.924 µM (≈ 3.6 µg/mL) | 0.924 µM (≈ 3.6 µg/mL) | 0.924 µM (≈ 3.6 µg/mL) |  |  |  |  |  |  | 
4 | CC[C@H](C)[C@H](NC(=O)[C@H](CCC(=O)O)NC(=O)[C@H](CO)NC(=O)[C@@H](NC(=O)[C@H](CC(C)C)NC(=O)[C@H](C)NC(=O)[C@H](CCC(N)=O)NC(=O)CNC(=O)[C@H](Cc1ccccc1)NC(=O)[C@H](CCCCN)NC(=O)[C@H](CCCCN)NC(=O)[C@H](C)NC(=O)[C@H](CO)NC(=O)[C@H](Cc1cnc[nH]1)NC(=O)[C@H](CC(C)C)NC(=O)[C@H](Cc1ccccc1)NC(=O)[C@H](CCCCN)NC(=O)CNC(=O)[C@@H](NC(=O)CN)C(C)C)C(C)C)C(=O)N[C@@H](CCSC)C(=O)N[C@@H](CCCCN)C(=O)N[C@@H](CO)C(=O)O [GVGKFLHSAKKFGQALVSEIMKS] | > 100 µM |  |  |  |  |  |  |  |  |  | MIC [1]: ≥ 50 µM
5 | CC[C@H](C)[C@H](N)C(=O)N[C@@H](CC(C)C)C(=O)N[C@@H](CCCCN)C(=O)N[C@@H](Cc1c[nH]c2ccccc12)C(=O)N[C@@H](CCCCN)C(=O)N[C@@H](Cc1c[nH]c2ccccc12)C(=O)N[C@@H](CCCCN)C(=O)N[C@@H](Cc1c[nH]c2ccccc12)C(=O)N[C@@H](Cc1c[nH]c2ccccc12)C(=O)N1CCC[C@H]1C(=O)N[C@@H](Cc1c[nH]c2ccccc12)C(=O)N[C@@H](CCCN=C(N)N)C(=O)N[C@@H](CCCN=C(N)N)C(N)=O [ILKWKWKWWPWRR] |  |  |  |  | 5.08 µM (≈ 10 µg/mL) | 5.08 µM (≈ 10 µg/mL) | 5.08 µM (≈ 10 µg/mL) | 5.08 µM (≈ 10 µg/mL) | 5.08 µM (≈ 10 µg/mL) | 5.08 µM (≈ 10 µg/mL) | 
6 | CC[C@H](C)[C@H](N)C(=O)N[C@@H](CC(C)C)C(=O)N[C@@H](CCCCN)C(=O)N[C@@H](Cc1c[nH]c2ccccc12)C(=O)N[C@@H](CCCCN)C(=O)N[C@@H](Cc1c[nH]c2ccccc12)C(=O)N1CCC[C@H]1C(=O)N[C@@H](Cc1c[nH]c2ccccc12)C(=O)N[C@@H](Cc1c[nH]c2ccccc12)C(=O)N[C@@H](CCCCN)C(=O)N[C@@H](Cc1c[nH]c2ccccc12)C(=O)N[C@@H](CCCN=C(N)N)C(=O)N[C@@H](CCCN=C(N)N)C(N)=O [ILKWKWPWWKWRR] |  |  |  |  | 2.54 µM (≈ 5 µg/mL) | 2.54 µM (≈ 5 µg/mL) | 5.08 µM (≈ 10 µg/mL) | 5.08 µM (≈ 10 µg/mL) | 5.08 µM (≈ 10 µg/mL) | 5.08 µM (≈ 10 µg/mL) | 
7 | CC[C@H](C)[C@H](N)C(=O)N[C@@H](CC(N)=O)C(=O)N1CCC[C@H]1C(=O)N[C@@H](Cc1ccccc1)C(=O)N[C@H](C(=O)N[C@@H](C)C(=O)NCC(=O)N[C@H](C(=O)N[C@@H](C)C(=O)N[C@@H](C)C(=O)N[C@@H](CCC(=O)O)C(=O)N[C@@H](CCSC)C(=O)N[C@@H](CCSC)C(=O)N[C@@H](CCC(N)=O)C(=O)N[C@@H](Cc1cnc[nH]1)C(=O)N[C@H](C(=O)N[C@@H](Cc1ccc(O)cc1)C(=O)N[C@H]1CSSC[C@@H](C(=O)O)NC(=O)[C@H](CCCCN)NC(=O)[C@H](CCCCN)NC(=O)[C@H](CO)NC(=O)[C@H](C)NC(=O)[C@H](C)NC1=O)C(C)C)C(C)C)C(C)C [INPFVAGVAAEMMQHVYCAASKKC] | 3.35 µM (≈ 8.59 µg/mL) | 3.35 µM (≈ 8.59 µg/mL) | 3.35 µM (≈ 8.59 µg/mL) | 3.35 µM (≈ 8.59 µg/mL) |  |  |  |  |  |  | 
8 | CC[C@H](C)[C@H](NC(=O)[C@H](CCCCN)NC(=O)[C@H](CCCCN)NC(=O)[C@H](Cc1ccccc1)NC(=O)[C@H](CC(C)C)NC(=O)[C@H](CCCCN)NC(=O)[C@H](C)NC(=O)[C@@H](N)CCCCN)C(=O)N1CCC[C@H]1C(=O)N[C@@H](CCCCN)C(=O)N[C@@H](Cc1ccccc1)C(=O)N[C@@H](CC(C)C)C(=O)N[C@@H](Cc1cnc[nH]1)C(=O)N[C@@H](CC(C)C)C(=O)N[C@@H](Cc1c[nH]c2ccccc12)C(=O)N[C@@H](CCCCN)C(=O)N[C@@H](CCCCN)C(=O)N[C@@H](Cc1ccccc1)C(N)=O [KAKLFKKIPKFLHLWKKF] |  |  |  |  | 2 µM (≈ 4.6 µg/mL) | 2 µM (≈ 4.6 µg/mL) | 2 µM (≈ 4.6 µg/mL) | 1 µM (≈ 2.3 µg/mL) | 1 µM (≈ 2.3 µg/mL) | 1 µM (≈ 2.3 µg/mL) | 
9 | C[C@H](NC(=O)[C@H](C)NC(=O)[C@H](Cc1ccccc1)NC(=O)[C@H](C)NC(=O)[C@H](C)NC(=O)[C@H](Cc1ccccc1)NC(=O)[C@H](C)NC(=O)[C@H](C)NC(=O)[C@H](Cc1ccccc1)NC(=O)[C@H](C)NC(=O)[C@H](C)NC(=O)[C@H](CCCCN)NC(=O)[C@H](CCCCN)NC(=O)[C@H](CCCCN)NC(=O)[C@H](CCCCN)NC(=O)[C@H](CCCCN)NC(=O)[C@@H](N)CCCCN)C(N)=O [KKKKKKAAFAAFAAFAA] | > 32 µM |  |  | 16 µM (≈ 28.7 µg/mL) |  |  |  |  |  |  | MIC [12]: 16 µM (≈ 28.7 µg/mL); MIC [13]: 16 µM (≈ 28.7 µg/mL); MIC [14]: > 32 µM; MIC [15]: 2 µM (≈ 3.59 µg/mL); MIC [16]: 8 µM (≈ 14.4 µg/mL)
10 | NCCCC[C@H](NC(=O)[C@H](Cc1c[nH]c2ccccc12)NC(=O)[C@H](CCC(N)=O)NC(=O)[C@H](Cc1c[nH]c2ccccc12)NC(=O)[C@H](CCCCN)NC(=O)[C@@H](N)CCCCN)C(=O)O [KKWQWK] | 47 µM (≈ 42.4 µg/mL) |  |  | 47 µM (≈ 42.4 µg/mL) |  |  |  |  |  |  | MIC [13]: 47 µM (≈ 42.4 µg/mL); MIC [17]: 23 µM (≈ 20.8 µg/mL)
11 | CC[C@H](C)[C@H](NC(=O)[C@H](CC(C)C)NC(=O)[C@H](CCCCN)NC(=O)[C@@H](NC(=O)[C@@H](NC(=O)[C@H](CCCN=C(N)N)NC(=O)[C@@H](N)CC(C)C)[C@@H](C)CC)C(C)C)C(=O)N[C@@H](CC(C)C)C(=O)N[C@@H](CCCCN)C(=O)N[C@@H](Cc1c[nH]c2ccccc12)C(=O)N[C@@H](CC(C)C)C(=O)N[C@@H](CCCN=C(N)N)C(N)=O [LRIVKLILKWLR] |  |  |  |  | 4 µM (≈ 6.2 µg/mL) | 8 µM (≈ 12.4 µg/mL) | 16 µM (≈ 24.8 µg/mL) | 2 µM (≈ 3.1 µg/mL) | 4 µM (≈ 6.2 µg/mL) | 16 µM (≈ 24.8 µg/mL) | 
12 | CC[C@H](C)[C@H](NC(=O)[C@H](CCCN=C(N)N)NC(=O)[C@H](CC(C)C)NC(=O)[C@H](CC(C)C)NC(=O)[C@@H](N)CCCN=C(N)N)C(=O)N[C@@H](Cc1c[nH]c2ccccc12)C(=O)N[C@@H](Cc1c[nH]c2ccccc12)C(=O)N[C@H](C(=O)N[C@@H](CCCN=C(N)N)C(=O)N[C@H](C(=O)N[C@@H](CC(C)C)C(=O)N[C@@H](CCCN=C(N)N)C(N)=O)C(C)C)[C@@H](C)CC [RLLRIWWIRVLR] |  |  |  |  | 7.44 µM (≈ 12.5 µg/mL) | 7.44 µM (≈ 12.5 µg/mL) | 14.9 µM (≈ 25 µg/mL) | 3.72 µM (≈ 6.25 µg/mL) | 1.86 µM (≈ 3.13 µg/mL) | 3.72 µM (≈ 6.25 µg/mL) | 
13 | CC(C)[C@H](N)C(=O)N[C@H](C(=O)N[C@@H](CCCCN)C(=O)N[C@@H](CS)C(=O)N[C@@H](CO)C(=O)N[C@@H](Cc1ccc(O)cc1)C(=O)N[C@@H](CCCN=C(N)N)C(=O)N[C@@H](CCC(N)=O)C(=O)NCC(=O)N[C@@H](CO)C(=O)N1CCC[C@H]1C(=O)N[C@@H](CC(=O)O)C(=O)N[C@@H](CO)C(=O)N[C@@H](CCCN=C(N)N)C(=O)O)C(C)C [VVKCSYRQGSPDSR] | > 126 µM | ≥ 126 µM | ≥ 126 µM | > 126 µM |  |  |  |  |  |  | 
